Source: PubChem BioAssay AID2060893 (Molecular Pharmacology Branch, DTP, NCI, 2025)
Values belong to the compound of their own block, whether it stands above or below them.

System: K86415-001-R-J1-PDC complex spheroids, viability
Assay: Anticancer human tumor K86415-001-R-J1-PDC patient-derived lung adenocarcinoma cell line growth inhibition [RAS]
Conditions: for IC50: curve of first compound; for viability, T/C: stronger effect = lower value
Source text: RAS pathway inhibitors in Combinations in Complex Spheroids
A high-throughput screen of multi-cell type tumor spheroids was designed to identify active combinations of RAS pathway inhibitors and targeted small molecules. Complex spheroids include a stromal component modeled by human endothelial cells (HUVEC) and fibroblasts modeled by human mesenchymal stem cells (MSCs). The concentration ranges selected for each drug and investigational agent were based upon clinically achievable concentrations if the clinical Cmax of the agent was known.
Compounds. The drugs and investigational agents: abemaciclib (NSC768073), cobimetinib (NSC768068), divarasib (GDC6063, NSC841802), docetaxel (NSC628503), GDC-1971 (RLY-1971, NSC841576), gemcitabine (NSC613327), inavolisib (NSC800729), ipatasertib (NSC767898), KB-0742 (NSC834161), MRTX-1133 (NSC836407), osimertinib (NSC779217), RMC-4630 (NSC839698), RMC-6236 (NSC851965), RMC-6291 (NSC852671), Ro-3306 (NSC812927), sapanisertib (NSC764658), SN-38 (NSC673596), staurosporine (NSC755774), SY5609 (NSC837396), and tovorafenib (DAY101, NSC766906), were obtained from the National Cancer Institute (NCI) Developmental Therapeutics Program Chemical Repository. The FDA-approved anticancer drug set is available from the NCI Developmental Therapeutics Program. […] The stock solutions were prepared in dimethyl sulfoxide (DMSO, Sigma-Aldrich, St. Louis, MO, cat. D2650) at 800-fold the tested concentration and stored at -70 degrees C prior to their use. All drugs and investigational agents were tested over a range starting from a high concentration at or near the clinical Cmax and decreasing in half-log increments. If the clinical Cmax for an agent had not been determined, the highest concentration tested was 10 microM.
Cell Culture. All cells were maintained in an incubator at 37 degrees C and 5% CO2 with 95% humidity. The PDC lines were cultured according to standard operating procedures established by the NCI PDMR. All PDCs were thawed and cultured in Matrigel-coated flasks prepared with a working solution of 1X Ham's F-12 nutrient mix, without supplementation (Invitrogen, Waltham, MA, cat. 11765054), 100 U/mL penicillin-streptomycin (Invitrogen, cat. 15140122), and 2.5% Matrigel (Corning Inc., Corning, NY, cat. 354248) for the first three passages. The 362531-283-R-J2-PDC and 782815-120-R-J1-PDC lines were cultured in 6C/Colon 1B media, which includes advanced DMEM/F-12 (Thermo Fisher Scientific, cat. 12634028), 10 mM HEPES (Thermo Fisher Scientific, cat. 15630080), 1X GlutaMAX supplement (Thermo Fisher Scientific, cat. 35050061), 0.1 mg/mL primocin (InvivoGen, San Diego, CA, cat. ant-pm-2), 10% defined fetal bovine serum, heat inactivated (HyClone Laboratories Inc., Logan, UT, cat. SH30070.03HI), 50% L-WRN conditioned media (ATCC, cat. CRL-3276), 1.25 mM N-Acetyl-L-cysteine (Sigma-Aldrich, cat. A9165), 10 mM nicotinamide (Sigma-Aldrich, cat. N0636), 1X B-27 supplement (Thermo Fisher Scientific, cat. 17504044), 1X N-2 supplement (Thermo Fisher Scientific, cat. 17502048), 50 ng/mL human EGF (Thermo Fisher Scientific, cat. PHG0311), and 10 microM Y-27632 dihydrochloride (Tocris Bioscience, cat. 1254). The K12877-001-R-J1-PDC line was cultured in 6I media, which includes all 6C/Colon 1B media plus 10 ng/mL human FGF-10 (PeproTech, cat. 100-26), 1 ng/mL human FGF-2 (PeproTech, cat. 100-18B), 1 µM prostaglandin E2 (Tocris Bioscience, cat. 2296), […] hydrocortisone (Sigma-Aldrich, cat. H4001), and […] bovine insulin (Sigma-Aldrich, cat. I6634). The K86415-001-R-J1-PDC line was cultured in 6D media, which includes all 6C/Colon 1B media components minus the L-WRN conditioned media. The 485176-168-R4-J1-PDC was cultured in PANC media, which includes all 6C/Colon 1B media plus 100 ng/mL human FGF-10 (PeproTech, cat. 100-26), 500 nM SB-431542 (Selleckchem, cat. S1067), and 10 nM gastrin (Tocris Bioscience, cat. 3006). […]

[1] = second compound 0.0316 µM, first compound 0.0316 µM
[2] = second compound 0.0316 µM, first compound 0.1 µM
[3] = second compound 0.0316 µM, first compound 0.316 µM
[4] = second compound 0.0316 µM, first compound 1 µM
[5] = second compound 0.0316 µM, first compound 3.16 µM
[6] = second compound 0.0316 µM, first compound 10 µM
[7] = second compound 0.1 µM, first compound 0.0316 µM
[8] = second compound 0.1 µM, first compound 0.1 µM
[9] = second compound 0.1 µM, first compound 0.316 µM
[10] = second compound 0.1 µM, first compound 1 µM
[11] = second compound 0.1 µM, first compound 3.16 µM
[12] = second compound 0.1 µM, first compound 10 µM
[13] = second compound 0.316 µM, first compound 0.0316 µM
[14] = second compound 0.316 µM, first compound 0.1 µM
[15] = second compound 0.316 µM, first compound 0.316 µM
[16] = second compound 0.316 µM, first compound 1 µM
[17] = second compound 0.316 µM, first compound 3.16 µM
[18] = second compound 0.316 µM, first compound 10 µM
[19] = second compound 1 µM, first compound 0.0316 µM
[20] = second compound 1 µM, first compound 0.1 µM
[21] = second compound 1 µM, first compound 0.316 µM
[22] = second compound 1 µM, first compound 1 µM
[23] = second compound 1 µM, first compound 3.16 µM
[24] = second compound 1 µM, first compound 10 µM
[25] = second compound 3.16 µM, first compound 0.0316 µM
[26] = second compound 3.16 µM, first compound 0.1 µM
[27] = second compound 3.16 µM, first compound 0.316 µM
[28] = second compound 3.16 µM, first compound 1 µM
[29] = second compound 3.16 µM, first compound 3.16 µM
[30] = second compound 3.16 µM, first compound 10 µM
[31] = second compound 10 µM, first compound 0.0316 µM
[32] = second compound 10 µM, first compound 0.1 µM
[33] = second compound 10 µM, first compound 0.316 µM
[34] = second compound 10 µM, first compound 1 µM
[35] = second compound 10 µM, first compound 3.16 µM
[36] = second compound 10 µM, first compound 10 µM
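Further: spheroids exposed to agents for seven days before readout.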

IC50 (second compound 0.0316 µM): 4.56 µM
IC50 (second compound 0.1 µM): 4.58 µM
IC50 (second compound 0.316 µM): 4.3 µM
IC50 (second compound 1 µM): 4.02 µM
IC50 (second compound 3.16 µM): < 0.0316 µM
IC50 (second compound 10 µM): < 0.0316 µM
Compound: CC1(O)CCCC1n1c(=O)c(C(F)F)cc2cnc(NC3CCN(S(C)(=O)=O)CC3)nc21 (stereo unspecified) + C#Cc1c(F)ccc2cc(O)cc(-c3ncc4c(N5CC6CCC(C5)N6)nc(OCC56CCCN5CC(F)C6)nc4c3F)c12
viability, T/C [1]: 86.2%
viability, T/C [2]: 71.4%
viability, T/C [3]: 59%
viability, T/C [4]: 79.4%
viability, T/C [5]: 70%
viability, T/C [6]: 7.15%
viability, T/C [7]: 78.2%
viability, T/C [8]: 68.4%
viability, T/C [9]: 57.9%
viability, T/C [10]: 64.6%
viability, T/C [11]: 80.6%
viability, T/C [12]: 8.13%
viability, T/C [13]: 74.2%
viability, T/C [14]: 63.3%
viability, T/C [15]: 55%
viability, T/C [16]: 67.9%
viability, T/C [17]: 67.1%
viability, T/C [18]: 8.09%
viability, T/C [19]: 65.3%
viability, T/C [20]: 62.4%
viability, T/C [21]: 53.6%
viability, T/C [22]: 54.5%
viability, T/C [23]: 70.7%
viability, T/C [24]: 6.85%
viability, T/C [25]: 28.2%
viability, T/C [26]: 28.9%
viability, T/C [27]: 29%
viability, T/C [28]: 43.6%
viability, T/C [29]: 59.4%
viability, T/C [30]: 5.28%
viability, T/C [31]: 15.6%
viability, T/C [32]: 16.1%
viability, T/C [33]: 21.9%
viability, T/C [34]: 25.9%
viability, T/C [35]: 30.2%
viability, T/C [36]: 2.97%

IC50 (second compound 0.0316 µM): > 1 µM
IC50 (second compound 0.1 µM): > 1 µM
IC50 (second compound 0.316 µM): > 1 µM
IC50 (second compound 1 µM): 0.0271 µM
IC50 (second compound 3.16 µM): < 0.00316 µM
IC50 (second compound 10 µM): < 0.00316 µM
Compound: CCN1CCN(Cc2ccc(Nc3ncc(F)c(-c4cc(F)c5nc(C)n(C(C)C)c5c4)n3)nc2)CC1 + C#Cc1c(F)ccc2cc(O)cc(-c3ncc4c(N5CC6CCC(C5)N6)nc(OCC56CCCN5CC(F)C6)nc4c3F)c12
viability, T/C (second compound 0.0316 µM, first compound 0.00316 µM): 93.1%
viability, T/C (second compound 0.0316 µM, first compound 0.01 µM): 89%
viability, T/C [1]: 77.4%
viability, T/C [2]: 67.5%
viability, T/C [3]: 66.3%
viability, T/C [4]: 67.4%
viability, T/C (second compound 0.1 µM, first compound 0.00316 µM): 90.9%
viability, T/C (second compound 0.1 µM, first compound 0.01 µM): 80.5%
viability, T/C [7]: 72.3%
viability, T/C [8]: 61.7%
viability, T/C [9]: 57.4%
viability, T/C [10]: 70.7%
viability, T/C (second compound 0.316 µM, first compound 0.00316 µM): 92%
viability, T/C (second compound 0.316 µM, first compound 0.01 µM): 79.3%
viability, T/C [13]: 67.1%
viability, T/C [14]: 55.8%
viability, T/C [15]: 50.3%
viability, T/C [16]: 61%
viability, T/C (second compound 1 µM, first compound 0.00316 µM): 62%
viability, T/C (second compound 1 µM, first compound 0.01 µM): 54.7%
viability, T/C [19]: 49%
viability, T/C [20]: 44.5%
viability, T/C [21]: 45.2%
viability, T/C [22]: 53.5%
viability, T/C (second compound 3.16 µM, first compound 0.00316 µM): 39.5%
viability, T/C (second compound 3.16 µM, first compound 0.01 µM): 34.9%
viability, T/C [25]: 28.4%
viability, T/C [26]: 26.1%
viability, T/C [27]: 30.9%
viability, T/C [28]: 38.9%
viability, T/C (second compound 10 µM, first compound 0.00316 µM): 14.3%
viability, T/C (second compound 10 µM, first compound 0.01 µM): 15.6%
viability, T/C [31]: 14.1%
viability, T/C [32]: 19%
viability, T/C [33]: 22.1%
viability, T/C [34]: 22.2%

IC50 (second compound 0.0316 µM): > 10 µM
IC50 (second compound 0.1 µM): > 10 µM
IC50 (second compound 0.316 µM): > 10 µM
IC50 (second compound 1 µM): 7.33 µM
IC50 (second compound 3.16 µM): 0.183 µM
IC50 (second compound 10 µM): < 0.0316 µM
Compound: C[C@@H](NC(=O)c1ncnc(N)c1Cl)c1ncc(C(=O)Nc2cc(C(F)(F)F)c(Cl)cn2)s1 + C#Cc1c(F)ccc2cc(O)cc(-c3ncc4c(N5CC6CCC(C5)N6)nc(OCC56CCCN5CC(F)C6)nc4c3F)c12
viability, T/C [1]: 107%
viability, T/C [2]: 115%
viability, T/C [3]: 104%
viability, T/C [4]: 81.1%
viability, T/C [5]: 61.1%
viability, T/C [6]: 56.5%
viability, T/C [7]: 113%
viability, T/C [8]: 112%
viability, T/C [9]: 93%
viability, T/C [10]: 79.9%
viability, T/C [11]: 67.5%
viability, T/C [12]: 56.8%
viability, T/C [13]: 119%
viability, T/C [14]: 108%
viability, T/C [15]: 88.8%
viability, T/C [16]: 79.8%
viability, T/C [17]: 65.5%
viability, T/C [18]: 53.6%
viability, T/C [19]: 83.9%
viability, T/C [20]: 85.9%
viability, T/C [21]: 69.1%
viability, T/C [22]: 69%
viability, T/C [23]: 59.7%
viability, T/C [24]: 46.3%
viability, T/C [25]: 46.9%
viability, T/C [26]: 53.5%
viability, T/C [27]: 52.3%
viability, T/C [28]: 42.6%
viability, T/C [29]: 38.4%
viability, T/C [30]: 30.2%
viability, T/C [31]: 19.5%
viability, T/C [32]: 26%
viability, T/C [33]: 23.1%
viability, T/C [34]: 18.2%
viability, T/C [35]: 19.6%
viability, T/C [36]: 15.3%
